Reference: patent US20260219277A1, “NOVEL FLUORESCENT COMPOUND, AND COMPOSITION FOR DETECTING GINGIPAIN, COMPOSITION FOR DIAGNOSING PORPHYROMONAS GINGIVALIS INFECTION, OR ANTIBACTERIAL COMPOSITION AGAINST PORPHYROMONAS GINGIVALIS USING SAME” (priority 2023, published 2026)

Key:
[1] = tested on: P. gingivalis conditioned medium (P.g. C.M.); design: species or system Porphyromonas gingivalis; settings: for increase in fluorescence in the P. gingivalis conditioned medium (P.g. C.M.): compared to the basic TSB media
Source text: (§1) Specifically, P. gingivalis is known to secrete gingipain (Kgp, Rgp) and outer membrane vesicles (OMVs) (FIG. 1A). Causative bacteria of periodontitis, i.e., P. gingivalis, F. nucleatum, and A. actinomycetecomitans, were observed using a scanning electron microscope (SEM) (FIG. 1B). Afterward, the conditioned media (C.M.) were isolated (FIG. 1C).
(§2) Therefore, the present inventors screened 24 types of thiol-reactive fluorescent compound libraries using the conditioned media. Here, four types of thiol-reactive MitoTrackers were used as control materials.
(§3) After culturing living P. gingivalis, F. nucleatum, and A. actinomycetecomitans with the fluorescent compound DTC630, and MitoTracker™ Red, cell-specific fluorescence reactions were compared.

[2] = tested on: F. nucleatum conditioned medium (F.n. C.M.); test: Fluorescence reaction in F. nucleatum conditioned medium; settings: compared to the basic TSB media
Source text: as §1, §2, §3

[3] = tested on: A. actinomycetecomitans conditioned medium (A.a C.M.); test: Fluorescence reaction in A. actinomycetecomitans conditioned medium; settings: compared to the basic TSB media
Source text: as §1, §2, §3

Kgp = test: Fluorescence spectrum after culture with Kgp; format: binding, P. gingivalis; settings: 10 μM, λex=425 nm; for detection of Kgp (fluorescence compared to PBS), in words: λem=450-700 nm
Description: (§4) Specifically, after the gingipains (Kgp and Rgp) secreted from P. gingivalis, calpain, which is a cysteine protease, and trypsin, which is a serine protease, were cultured with fluorescent compound DTC630 (10 μM), a fluorescence spectrum was measured (λex=425 nm, λem=450-700 nm).
(§5) In addition, the degree of fluorescence reaction of fluorescent compound DTC630 (1, 3, 10, 30, and 100 μM) was measured at each concentration for Kgp, Rgp, calpain, and trypsin (final concentration: 0.3 mg/mL).

Rgp = Rgp (Porphyromonas gingivalis, UniProt P28784); test: Fluorescence spectrum after culture with Rgp; format: binding, P. gingivalis; settings: 10 μM, λex=425 nm; for detection of Rgp (fluorescence compared to PBS), in words: λem=450-700 nm
Description: as §4, §5

calpain = test: Fluorescence spectrum after culture with calpain; format: binding, human; settings: 10 μM, λex=425 nm; for detection of calpain (fluorescence compared to PBS), in words: λem=450-700 nm
Description: as §4, §5

trypsin = test: Fluorescence spectrum after culture with trypsin; format: binding, human; settings: 10 μM, λex=425 nm; for detection of trypsin (fluorescence compared to PBS), in words: λem=450-700 nm
Description: as §4, §5

Chain of Rgp (P28784 228-991): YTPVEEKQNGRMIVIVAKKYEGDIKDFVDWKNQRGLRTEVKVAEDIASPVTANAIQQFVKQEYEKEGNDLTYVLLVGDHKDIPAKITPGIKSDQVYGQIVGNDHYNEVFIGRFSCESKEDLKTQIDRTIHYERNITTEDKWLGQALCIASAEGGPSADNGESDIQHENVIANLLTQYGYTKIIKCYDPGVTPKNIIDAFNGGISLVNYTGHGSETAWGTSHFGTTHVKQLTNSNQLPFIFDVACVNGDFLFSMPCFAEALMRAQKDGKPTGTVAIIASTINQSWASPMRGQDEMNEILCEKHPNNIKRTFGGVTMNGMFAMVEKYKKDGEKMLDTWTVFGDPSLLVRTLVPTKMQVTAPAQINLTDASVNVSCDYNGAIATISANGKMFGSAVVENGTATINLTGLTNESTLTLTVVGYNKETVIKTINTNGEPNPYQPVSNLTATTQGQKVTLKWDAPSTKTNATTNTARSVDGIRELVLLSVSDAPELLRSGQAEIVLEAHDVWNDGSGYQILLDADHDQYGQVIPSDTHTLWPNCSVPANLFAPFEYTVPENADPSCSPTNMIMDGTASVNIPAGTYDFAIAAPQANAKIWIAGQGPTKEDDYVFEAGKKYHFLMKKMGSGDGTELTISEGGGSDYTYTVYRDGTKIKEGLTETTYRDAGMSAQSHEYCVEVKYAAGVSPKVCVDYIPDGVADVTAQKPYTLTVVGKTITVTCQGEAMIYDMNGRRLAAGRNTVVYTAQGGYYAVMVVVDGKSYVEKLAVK

| Structure (SMILES) | increase in fluorescence in the P. gingivalis conditioned medium (P.g. C.M.) [1] [fold] | increase in fluorescence in the F. nucleatum conditioned medium (F.n. C.M.) [2] [fold] | increase in fluorescence in the A. actinomycetecomitans conditioned medium (A.a C.M.) [3] [fold] | selectivity of fluorescence reaction for P. gingivalis conditioned medium (library screen heatmap) ([1]; fluorescence magnification for TSB medium, screen of 24 thiol-reactive fluorescent compounds) | fluorescence increase for Kgp compared to PBS (Kgp) [fold] | detection of Kgp (fluorescence compared to PBS), in words (Kgp) | detection of Rgp (fluorescence compared to PBS), in words (Rgp) | detection of calpain (fluorescence compared to PBS), in words (calpain) | detection of trypsin (fluorescence compared to PBS), in words (trypsin) | fluorescence increase for Rgp compared to PBS (Rgp) [fold] | fluorescence increase for calpain compared to PBS (calpain) [fold] | fluorescence increase for trypsin compared to PBS (trypsin) [fold] |
| --- | --- | --- | --- | --- | --- | --- | --- | --- | --- | --- | --- | --- |
| CN(C)c1ccc(-c2ccc(/C=C(\C#N)c3nnn[nH]3)cc2)cc1 [DTC630, (E)-3-(4′-(dimethylamino)-[1,1′-biphenyl]-4-yl)-2-(1H-tetrazol-5-yl) acrylonitrile] | 6.2±0.2 | 1.6±0.1 | 1.5±0.1 |  |  |  |  |  |  |  |  |  |
| CN(C)c1ccc(-c2ccc(C=C(C#N)C#N)cc2)cc1 [DTC2352, 2-((4′-(dimethylamino)-[1,1′-biphenyl]-4-yl)methylene)malononitrile] |  |  |  | does not exhibit a P. gingivalis-selective fluorescence reaction | 3±0 | no increase in fluorescence | no increase in fluorescence | no increase in fluorescence | no increase in fluorescence |  |  |  |
| ClCc1ccc(C2=c3cc4c5c(c3Oc3c2cc2c6c3CCCN6CCC2)CCC[N+]=5CCC4)cc1.[Cl-] [MitoTracker™ Red] | 5.6±0.6 | 3.2±0.1 | 4.5±0.1 |  | 145±5 | increase in fluorescence | increase in fluorescence | increase in fluorescence | increase in fluorescence | 126±6 | 163±1 | 93±9 |
